This note sets out measurements from PubChem BioAssay AID1996.

Converted amounts (≈) assume the structure as drawn.

The term kinetic solubility denotes the concentration staying in solution when a stock, usually in DMSO, is diluted into the medium.

For the series the following is noted: buffer; pH 7.4; 200.0 µM.
Compound `Cc1cnc(NC(=O)c2cccs2)s1` returned a solubility (kinetic) of 28.1 µg/mL (≈ 125 µM).

Compound `CC(C)c1ccccc1NC(=O)C1CC(=O)N(C2CCCC2)C1` (configuration not stated) displayed a kinetic solubility of over 47.2 µg/mL.

Consider `Cc1cc(S(=O)(=O)NCCCN2CCOCC2)c(Cl)cc1Cl`, for which the kinetic solubility came to 42.6 µg/mL (≈ 116 µM).

`Cc1ccc(C(=O)NCC(=O)N2CCN(c3cccc(Cl)c3)CC2)s1` displayed a solubility (kinetic) of 2.8 µg/mL (≈ 7.41 µM).

`CCOC(=O)C1CCN(C(=O)COC(=O)/C=C/c2ccc([N+](=O)[O-])cc2)CC1`: the kinetic solubility amounted to 18.7 µg/mL (≈ 47.9 µM).

The compound `COc1ccc(NC(=O)Nc2cccnc2)cc1` had a kinetic solubility of over 36.5 µg/mL.

Compound `CC(=O)Nc1ccc(OCCOc2ccccc2C(C)=O)cc1` registered a kinetic solubility of over 47 µg/mL.

In turn, `N#Cc1c(-c2ccccc2)cc(-c2ccccc2)nc1SCCC(=O)O` showed a solubility (kinetic) of over 54.1 µg/mL.

As to `CC(=O)CSc1nnc(-c2ccco2)n1-c1ccccc1`, the solubility (kinetic) was over 44.9 µg/mL.

For `Cc1ccc(-n2c(=O)[nH]c3c(oc4ccccc43)c2=O)cc1`, the solubility (kinetic) is 38.8 µg/mL (≈ 133 µM).

With `CC1(C)C2C/C(=N\O)C(C)(/[N+]([O-])=C/c3cccc([N+](=O)[O-])c3)CC21` (configuration not stated), the kinetic solubility worked out at 45.2 µg/mL (≈ 136 µM).

Turning to `Cc1ccc(C(=O)NCCc2c[nH]c3ccccc23)c(C)c1`, the kinetic solubility came to 23 µg/mL (≈ 78.7 µM).

Compound `Cc1ccc(C(=O)NCC(=O)NCC(c2cccs2)N(C)C)cc1C` (configuration not stated) yielded a solubility (kinetic) of over 53.9 µg/mL.

In the case of `Cc1ccc2c(ccc(=S)n2C)c1`, the kinetic solubility amounted to 24.1 µg/mL (≈ 127 µM).

Take `O=S(=O)(c1cccs1)N1CCN(c2ccccc2)CC1`: the kinetic solubility was found to be 1.4 µg/mL (≈ 4.54 µM).

Regarding `Cc1cc(CNC(=O)c2cccc([N+](=O)[O-])c2)c2ccccc2n1`, the solubility (kinetic) is 2.8 µg/mL (≈ 8.71 µM).

The compound `Cc1ccc(/C=C(\C#N)C(=O)Nc2cccc(C)n2)cc1` registered a kinetic solubility of under 0.2 µg/mL.

With `CC1C2(C)OCC(C#N)(C(=N)O2)C1(C#N)C#N` (configuration not stated), the solubility (kinetic) is over 34.5 µg/mL.

`COc1ccc(/C=C/C(=O)NCCc2nc3ccccc3[nH]2)cc1` returned a solubility (kinetic) of 9.9 µg/mL (≈ 30.8 µM).

For `O=C(OCc1ccc([N+](=O)[O-])cc1)c1cnc(Cl)c(Cl)c1`, the solubility (kinetic) worked out at 0.4 µg/mL (≈ 1.22 µM).

On to `CC(C)CC(=O)N1CCN(C(=O)c2ccc(F)cc2)CC1`, for which the kinetic solubility is over 43.9 µg/mL.

Take `O=c1[nH]c(/C=C/c2ccc(Br)cc2)nc2ccccc12`: the solubility (kinetic) worked out at 0.8 µg/mL (≈ 2.45 µM).

In turn, `O=C1CCC(C(=O)NCc2ccccc2)N1` (configuration not stated) returned a solubility (kinetic) of 30.8 µg/mL (≈ 141 µM).

The compound `O=C(NC1CCCCCC1)C1CCCN(c2ncccn2)C1` (configuration not stated) yielded a solubility (kinetic) of over 45.4 µg/mL.

The compound `COc1ccc(OC)c(NC(=O)c2cccc(NC(=O)c3ccccc3)c2)c1` showed a solubility (kinetic) of 9.8 µg/mL (≈ 26 µM).

For the compound `C/C(=N/O)c1cccc(N2Cc3ccccc3C2)c1`, the kinetic solubility worked out at 22.2 µg/mL (≈ 88 µM).

On to `CCOC(=O)Nc1cccnc1Sc1ccc(Cl)cc1`, for which the solubility (kinetic) turned out to be 35.1 µg/mL (≈ 114 µM).

Turning to `O=C(C[n+]1ccccc1)Nc1ccc(Cl)c([N+](=O)[O-])c1.[Cl-]`, the solubility (kinetic) was over 49.2 µg/mL.

`CCc1cc2c(=O)oc(-c3ccc(Br)cc3)nc2s1`: the kinetic solubility is under 0.7 µg/mL.

Take `CCC(=O)NC(=S)Nc1cccc(Cl)c1N1CCCC1`: the kinetic solubility is 0.3 µg/mL (≈ 0.962 µM).

For the compound `CC(C)c1onc(C(=O)N2CCC(C(N)=O)CC2)c1[N+](=O)[O-]`, the kinetic solubility is over 46.5 µg/mL.

For `COc1ccccc1C(=O)O/N=C(\N)c1ccccn1`, the solubility (kinetic) was over 40.7 µg/mL.

`Cc1cc(NC(=O)CSc2ccccn2)no1` registered a kinetic solubility of over 37.4 µg/mL.

Consider `Cl.O=C(CN1CCOCC1)NCc1ccc(F)cc1`, for which the solubility (kinetic) is over 43.3 µg/mL.

`COc1ccc2c(CC(=O)Nc3ccc(N4CCOCC4)cc3)coc2c1`: the solubility (kinetic) turned out to be 5.4 µg/mL (≈ 14.7 µM).

On to `O=C(O)CSc1nc2ccccc2s1`, for which the kinetic solubility was over 33.8 µg/mL.

With `O=C(O)/C=C\C(=O)Nc1ccc(F)c(F)c1F`, the kinetic solubility was found to be 34.3 µg/mL (≈ 140 µM).

`CN(C)CCCNC(=O)c1cc(C(=O)c2ccccc2F)c[nH]1`: the solubility (kinetic) was over 47.6 µg/mL.

Turning to `Fc1ccc(CO/N=C2\CCCc3nonc32)cc1`, the solubility (kinetic) worked out at 3 µg/mL (≈ 11.5 µM).

In turn, `COc1ccc(N(CC(=O)N2CCCC2)S(C)(=O)=O)cc1` displayed a kinetic solubility of 34.5 µg/mL (≈ 110 µM).

`CC1CCC2(CC1)NC(=O)N(CC(=O)Nc1cccc(S(=O)(=O)N3CCCCC3)c1)C2=O` (configuration not stated) registered a kinetic solubility of 2.2 µg/mL (≈ 4.76 µM).

In the case of `O=C1CSC(=Nc2cccc([N+](=O)[O-])c2)N1`, the solubility (kinetic) is over 35.6 µg/mL.

Compound `CN(C)c1ccc(/C=N/OC(=O)Nc2ccccc2)cc1` had a solubility (kinetic) of 11 µg/mL (≈ 38.8 µM).

`CCCNC(=O)NC(=O)CN1CCCC1c1ccc2c(c1)OCCO2` (configuration not stated) showed a solubility (kinetic) of over 52.1 µg/mL.

`COc1ccc(OC)c(S(=O)(=O)NCCCn2ccnc2)c1` yielded a solubility (kinetic) of 41.6 µg/mL (≈ 128 µM).

`Cc1ccccc1OCCn1cc(C(=O)O)c2ccccc21` returned a solubility (kinetic) of over 44.3 µg/mL.

Take `O=[N+]([O-])c1ccc2nc(NS(=O)(=O)c3ccc(F)cc3)sc2c1`: the kinetic solubility was found to be 49.7 µg/mL (≈ 141 µM).

In the case of `CC(C(=O)N(C)C)N1c2cccc3cccc(c23)S1(=O)=O` (configuration not stated), the kinetic solubility amounted to 19.9 µg/mL (≈ 65.4 µM).

As for `CCN(CC)c1ccc(NC(=O)c2c(C)noc2C)cc1`, the solubility (kinetic) was over 43.1 µg/mL.

With `C=CCc1ccc(OCCCNC2CCCC2)c(OC)c1`, the solubility (kinetic) came out at 35.6 µg/mL (≈ 123 µM).

The compound `COc1cccc2c(O)c(-c3ccccc3)c(=O)[nH]c12` came in with a kinetic solubility of over 40.1 µg/mL.

Consider `c1coc(-c2ccnc(-n3cccc3)n2)c1`, for which the kinetic solubility turned out to be 1.6 µg/mL (≈ 7.57 µM).
